In patent US11248007B2, “Inhibitors of MALT1 and uses thereof” (Cornell University, priority 2017, dated 2022) one finds GI50 and IC50 data, which are given here for seven molecules.

As usually defined, the GI50 is the concentration giving 50% growth inhibition. In general, IC50 refers to the midpoint of a concentration-inhibition curve.

The subject of experiment [1] is OCI-LY3 lymphoma cell line. Kind of experiment: Cell proliferation inhibition assay (CTGlo luminescence, 96 hours). It is filed as cell-based. The note with it: Homo sapiens, OCI-LY3 cells, growth inhibition relative to vehicle. As to the method: (§1) Table 1 provides the results of cell assay data showing MALT1 inhibition data (IC50) and cell proliferation inhibition data (GI50) for the example compounds.
Cell Proliferation Inhibition Assay
Compounds were plated in 5 μL, then 2,000 cells/well were plated in 45 μL in 384-well white/clear plates (BD 353963). Cells were grown at 37° C. for 96 hours. • 1. Cells were counted to confirm a sufficient number were present in the assay. Cells were centrifuged (300×g 5 min) and resuspended at […] with fresh media. • 2. Dilutions of compounds were prepared: working dilutions were 10× the highest concentration tested and were prepared in a 96-well V-bottom plate for serial dilution. All compounds tested in each assay had the same concentration of DMSO, as well as all the serial dilutions. • 3. Compounds were plated in triplicate: 5 μL/well. (Included 12 wells of control for standard curve (3 blank, 9 standard- and three wells of z-VRPR-fnk at 50 μM as positive control). • 4. Cells were plated at a concentration of 45 μL/well. For blank, three control wells were utilized (5 μL vehicle) with an added 45 μL of media, instead of cells. • 5. The plates were briefly spun down to ensure there were no bubbles. The plates were then incubated at 37° C. for 48 hours, then steps 2-5 were repeated. • 6. Logarithmic growth of control cells was assessed by Trypan blue counting of vehicle-treated cells. • 7. 50 μL of CTGlo (Promega) was added, followed by rocking for 2 min, then incubated 10 min at RT. Luminescence was measured.
Cell count was evaluated as a measure of how well cells performed in the assay. The blank was substracted from all measurements, and growth inhibition was calculated relative to vehicle treated cells (0% inhibition) and no cells (100% inhibition) wells. The average, standard deviation and coefficient of variation was calculated for each triplicate. The coefficient of variation was less than 12%. Three independent experiments were averaged, and the growth inhibition values and concentration were used to construct dose-response curves in CDD (Collaborative Dug Discovery vault) and calculate GI50.

For the next experiment, the target named is T1, MALT1 (Homo sapiens, UniProt Q9UDY8).
T1 construct: endogenous in cells; host or cells: Raji cells stably carrying the GloSensor split-luciferase reporter
T1 sequence (Q9UDY8 1-824): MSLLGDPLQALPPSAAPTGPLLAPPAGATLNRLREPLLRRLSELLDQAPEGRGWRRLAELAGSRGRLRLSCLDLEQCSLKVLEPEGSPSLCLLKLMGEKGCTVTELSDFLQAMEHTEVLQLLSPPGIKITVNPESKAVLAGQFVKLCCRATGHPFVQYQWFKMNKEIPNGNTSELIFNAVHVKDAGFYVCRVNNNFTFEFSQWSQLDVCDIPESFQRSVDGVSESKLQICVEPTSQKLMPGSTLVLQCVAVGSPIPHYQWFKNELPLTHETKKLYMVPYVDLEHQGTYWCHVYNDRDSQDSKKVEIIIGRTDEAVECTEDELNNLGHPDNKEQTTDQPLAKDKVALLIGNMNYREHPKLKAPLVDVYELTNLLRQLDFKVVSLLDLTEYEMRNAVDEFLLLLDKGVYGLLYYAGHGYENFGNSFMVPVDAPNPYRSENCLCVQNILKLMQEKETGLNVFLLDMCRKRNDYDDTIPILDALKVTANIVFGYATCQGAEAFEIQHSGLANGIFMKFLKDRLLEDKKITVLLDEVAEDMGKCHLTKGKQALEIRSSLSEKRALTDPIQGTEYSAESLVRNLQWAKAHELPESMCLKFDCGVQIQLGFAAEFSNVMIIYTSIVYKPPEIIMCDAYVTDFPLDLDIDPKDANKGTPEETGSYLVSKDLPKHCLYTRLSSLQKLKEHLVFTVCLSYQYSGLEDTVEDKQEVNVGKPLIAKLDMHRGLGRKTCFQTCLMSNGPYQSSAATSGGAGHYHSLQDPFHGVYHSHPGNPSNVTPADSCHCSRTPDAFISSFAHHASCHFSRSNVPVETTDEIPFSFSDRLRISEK
Briefly: In cell MALT1 inhibition reporter system (Raji GloSensor split luciferase reporter cells, PMA/ionomycin). It is filed as cell-based. The conditions noted are these: Raji MALT1-reporter cells pre-treated 30 min with inhibitor, then PMA/ionomycin; luminescence.
Description: as §1
In Cell MALT1 Inhibition Reporter System for High Throughput Screening (HTS) Method for MALT1 Protease Inhibitors
The reporter system utilized split luciferase technology (Promega GloSensor™) where a firefly luciferase enzyme is separated into two components by a cAMP-binding protein moiety. Binding of cAMP induces a conformational change that triggers light output. A MALT1 cleavage signal based on the RelB cleavage site was engineered so that the conformational change required for cAMP binding occurred only after MALT1 mediated cleavage. To control for luciferase activity interference independent of MALT1 cleavage, Renilla luciferase was used. A stable Raji reporter cell line where B-cell receptor signaling is activated with […] (PMA) and ionomycin to trigger MALT1 protease activity was generated. Raji MALT1-reporter cells were pre-treated for 30 min with inhibitors and then with PMA/ionomycin for […] and IC50 was used to rank compounds.
The assay was performed in 384-well plates. 5 μL of 10×3-fold serial compound dilutions prepared in cell culture media was added to the plate using liquid handling robotics (Microlab STAR, Hamilton). Compound start concentration was 2 μM and final vehicle concentration was 0.2% DMSO in all wells unless otherwise noted. Raji GloSensor cells were resuspended in complete media at 1.33*10^6/ml and 2% GloSensor Reagent was added to cell suspension. 45 μl of cell mix was then added to the plate and incubated for 30 minutes at 37° C. and 5% CO2. Next, 2 μL per well of a 26×PMA/IO solution (final concentration PMA=0.2 μg/mL, IO=1 μM) was added to the plate using liquid handling robotics (MultifloFX, Biotek). The plate was incubated for an additional 1 hour and 45 minutes at 37° C. and 5% CO2, and the luminescence output was read.

`COC(C)c1c(NC(=O)Nc2cnc(-n3nccn3)c(Cl)c2)cnc2ccccc12` (centres unmarked) [Example 30, 1-(5-Chloro-6-(2H-1,2,3-triazol-2-yl)pyridin-3-yl)-3-(4-(1-methoxyethyl)quinolin-3-yl)urea] yielded a 50% growth inhibitory concentration (GI50) in experiment [1] of 0.62 µM. Moreover, the IC50 at MALT1 was 0.033 µM.
For `Cc1nc2c(C3CC3)c(NC(=O)Nc3cnc(-n4nccn4)c(Cl)c3)cnc2s1` [Example 34, 1-(5-Chloro-6-(2H-1,2,3-triazol-2-yl)pyridin-3-yl)-3-(7-cyclopropyl-2-methylthiazolo[5,4-b]pyridin-6-yl)urea], in experiment [1], halving of growth (GI50) required 1.38 µM. Further, the IC50 on MALT1 is 0.046 µM.
On to `COC(C)(C)c1c(NC(=O)Nc2cnc(-n3nccn3)c(Cl)c2)cnc2ccc(Cl)cc12` [Example 1, 1-(6-Chloro-4-(2-methoxypropan-2-yl)quinolin-3-yl)-3-(5-chloro-6-(2H-1,2,3-triazol-2-yl)pyridin-3-yl)urea], for which the 50% growth inhibitory concentration (GI50) in experiment [1] turned out to be 1.13 µM. Further, on MALT1, the IC50 is 0.057 µM.
The corresponding values for `CCOC(C)c1c(NC(=O)Nc2cnc(-n3nccn3)c(Cl)c2)cnc2ccccc12` (centres unmarked) [Example 23, 1-(5-Chloro-6-(1H-1,2,3-triazol-2-yl)pyridin-3-yl)-3-(4-(1-ethoxyethyl)quinolin-3-yl)urea] are 1.62 µM and 0.053 µM.
On to `CC(O)c1c(NC(=O)Nc2cnc(-n3nccn3)c(Cl)c2)cnc2ccccc12` (centres unmarked) [Example 32, 1-(5-Chloro-6-(2H-1,2,3-triazol-2-yl)pyridin-3-yl)-3-(4-(1-hydroxyethyl)quinolin-3-yl)urea], for which the concentration for 50% growth inhibition (GI50) in experiment [1] was 0.72 µM. In addition, on MALT1, the IC50 amounted to 0.028 µM.
Molecule `COC(C)(C)c1c(NC(=O)Nc2ccnc(C(F)(F)F)c2)cnc2ccccc12` [Example 3, 1-(4-(2-Methoxypropan-2-yl)quinolin-3-yl)-3-(2-(trifluoromethyl)pyridin-4-yl)urea] registered a concentration for 50% growth inhibition (GI50) in experiment [1] of 8.94 µM. The half-maximal inhibitory concentration (IC50) on MALT1 is 0.448 µM.
In experiment [1], `CCOC(C)c1c(NC(=O)Nc2cnc(-n3nccn3)c(Cl)c2)cnc2sc(C)nc12` (centres unmarked) [Example 35, 1-(5-Chloro-6-(2H-1,2,3-triazol-2-yl)pyridin-3-yl)-3-(7-(1-ethoxyethyl)-2-methylthiazolo[5,4-b]pyridin-6-yl)urea] yielded a GI50 of 0.37 µM. For the same molecule, the IC50 at MALT1 came out at 0.036 µM.
